The record followed here is ChEMBL document CHEMBL1201862, “PubChem BioAssay data set” (2004).

The target in one test is T1, Protein skinhead-1 (Caenorhabditis elegans, UniProt P34707).
T1 sequence (P34707 whole entry): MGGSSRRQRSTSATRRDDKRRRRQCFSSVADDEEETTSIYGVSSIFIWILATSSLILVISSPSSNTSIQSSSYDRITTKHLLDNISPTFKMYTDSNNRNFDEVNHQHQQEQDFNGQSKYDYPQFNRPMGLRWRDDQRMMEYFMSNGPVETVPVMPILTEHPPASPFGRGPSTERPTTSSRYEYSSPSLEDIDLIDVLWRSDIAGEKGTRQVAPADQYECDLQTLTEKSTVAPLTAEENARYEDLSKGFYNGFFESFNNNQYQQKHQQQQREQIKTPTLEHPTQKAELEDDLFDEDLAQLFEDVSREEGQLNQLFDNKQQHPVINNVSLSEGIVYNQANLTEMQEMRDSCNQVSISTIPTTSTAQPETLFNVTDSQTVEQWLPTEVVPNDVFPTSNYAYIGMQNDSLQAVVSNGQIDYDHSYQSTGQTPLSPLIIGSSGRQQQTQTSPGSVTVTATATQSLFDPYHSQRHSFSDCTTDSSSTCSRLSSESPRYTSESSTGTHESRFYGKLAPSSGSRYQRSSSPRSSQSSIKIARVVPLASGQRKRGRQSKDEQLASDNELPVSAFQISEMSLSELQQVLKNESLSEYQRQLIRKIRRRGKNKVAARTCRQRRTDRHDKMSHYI
Format: functional.

A further test deals with H4. Nature of the test: Luminescence Cell-Based Dose Response HTS to Identify Activators of 5'UTR Stem-Loop Driven Prion Protein mRNA Translation in H4 Neuroglioblastoma Cells. [Related pubchem assays: 1829 (Project Summary), 1814 (Primary HTS)]. Particulars: Homo sapiens. Format: functional.
Test [1] can be described thus: Luminescence Cell-Based Dose Response HTS to Identify Activators of Luciferase Translation or Activity in H4 […] Cells. [Related pubchem assays: 1829 (Project Summary), 1814 (Primary HTS)]. Format: functional.
For test [2], the target named is T2, Zinc finger protein mex-5 (Caenorhabditis elegans, UniProt Q9XUB2).
T2 sequence (Q9XUB2 whole entry): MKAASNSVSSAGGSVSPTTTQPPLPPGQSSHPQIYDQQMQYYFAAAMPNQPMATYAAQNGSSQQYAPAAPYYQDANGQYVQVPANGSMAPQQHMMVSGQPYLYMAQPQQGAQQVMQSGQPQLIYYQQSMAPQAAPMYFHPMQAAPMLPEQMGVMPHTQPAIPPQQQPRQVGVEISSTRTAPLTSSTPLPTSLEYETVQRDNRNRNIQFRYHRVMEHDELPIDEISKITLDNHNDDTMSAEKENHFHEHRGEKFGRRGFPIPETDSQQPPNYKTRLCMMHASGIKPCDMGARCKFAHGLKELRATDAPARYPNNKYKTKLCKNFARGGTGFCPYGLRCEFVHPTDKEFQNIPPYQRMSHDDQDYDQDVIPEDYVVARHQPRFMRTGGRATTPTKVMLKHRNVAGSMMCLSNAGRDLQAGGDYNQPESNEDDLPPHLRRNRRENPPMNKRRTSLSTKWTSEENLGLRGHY
Nature of the test: MEX-5/TCR-2 RNA interaction inhibitors, dose response, biochemical, C. elegans, fluorescence polarization (AID 1960). For orientation: In fluorescence polarisation assays a small probe gives low polarisation when free and higher when bound to something large.

The target of test [3] is T3, RNA-binding protein pos-1 (Caenorhabditis elegans, UniProt G5EF15).
T3 sequence (G5EF15 whole entry): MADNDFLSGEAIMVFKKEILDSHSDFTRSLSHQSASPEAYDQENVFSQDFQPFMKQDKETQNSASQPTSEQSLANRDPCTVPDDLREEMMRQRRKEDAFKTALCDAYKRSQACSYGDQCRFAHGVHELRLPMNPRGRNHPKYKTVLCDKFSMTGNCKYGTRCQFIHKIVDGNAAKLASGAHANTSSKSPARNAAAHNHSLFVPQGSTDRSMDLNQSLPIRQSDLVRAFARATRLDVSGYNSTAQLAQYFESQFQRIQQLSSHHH
Nature of the test: inhibitors of POS-1/mex-3 RNA binding, dose response, biochemical, fluorescence polarization (AID 1964).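 Note: purified POS-1 fused to maltose binding protein made in E. coli; potency of compounds blocking POS-1 binding to fluorescent RNA.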

The target in test [4] is T4, Replicative DNA helicase DnaB (Mycobacterium tuberculosis, UniProt P9WMR3).
T4 sequence (P9WMR3 whole entry): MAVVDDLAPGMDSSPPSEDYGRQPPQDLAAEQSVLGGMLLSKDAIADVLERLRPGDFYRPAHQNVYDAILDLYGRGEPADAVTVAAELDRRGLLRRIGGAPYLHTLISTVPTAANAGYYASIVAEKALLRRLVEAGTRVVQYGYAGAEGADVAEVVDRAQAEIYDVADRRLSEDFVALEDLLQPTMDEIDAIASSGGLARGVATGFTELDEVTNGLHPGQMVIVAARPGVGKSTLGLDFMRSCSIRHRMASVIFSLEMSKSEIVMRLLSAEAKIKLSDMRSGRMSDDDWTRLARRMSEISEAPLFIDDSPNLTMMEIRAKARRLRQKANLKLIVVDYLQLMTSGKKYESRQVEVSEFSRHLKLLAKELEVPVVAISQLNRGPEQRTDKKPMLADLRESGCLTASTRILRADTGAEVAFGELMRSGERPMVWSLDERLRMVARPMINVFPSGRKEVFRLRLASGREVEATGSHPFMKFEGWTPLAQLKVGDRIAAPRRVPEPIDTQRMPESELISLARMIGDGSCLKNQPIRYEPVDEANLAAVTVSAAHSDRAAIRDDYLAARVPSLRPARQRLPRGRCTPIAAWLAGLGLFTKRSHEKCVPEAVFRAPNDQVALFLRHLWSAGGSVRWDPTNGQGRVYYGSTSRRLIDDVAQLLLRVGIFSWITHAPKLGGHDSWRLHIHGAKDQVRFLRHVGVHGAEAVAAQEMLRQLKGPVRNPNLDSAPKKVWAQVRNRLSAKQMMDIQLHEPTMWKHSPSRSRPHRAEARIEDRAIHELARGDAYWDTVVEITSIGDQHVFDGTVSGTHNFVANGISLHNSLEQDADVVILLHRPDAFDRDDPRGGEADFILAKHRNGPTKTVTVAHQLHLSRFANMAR
Nature of the test: DnaB intein splicing inhibitors, dose response, biochemical, cell-free fluorescence (AID 449749). Format: functional.

The next test has as its target T5, Protein RecA (Mycobacterium tuberculosis, UniProt P9WHJ3).
T5 sequence (P9WHJ3 whole entry): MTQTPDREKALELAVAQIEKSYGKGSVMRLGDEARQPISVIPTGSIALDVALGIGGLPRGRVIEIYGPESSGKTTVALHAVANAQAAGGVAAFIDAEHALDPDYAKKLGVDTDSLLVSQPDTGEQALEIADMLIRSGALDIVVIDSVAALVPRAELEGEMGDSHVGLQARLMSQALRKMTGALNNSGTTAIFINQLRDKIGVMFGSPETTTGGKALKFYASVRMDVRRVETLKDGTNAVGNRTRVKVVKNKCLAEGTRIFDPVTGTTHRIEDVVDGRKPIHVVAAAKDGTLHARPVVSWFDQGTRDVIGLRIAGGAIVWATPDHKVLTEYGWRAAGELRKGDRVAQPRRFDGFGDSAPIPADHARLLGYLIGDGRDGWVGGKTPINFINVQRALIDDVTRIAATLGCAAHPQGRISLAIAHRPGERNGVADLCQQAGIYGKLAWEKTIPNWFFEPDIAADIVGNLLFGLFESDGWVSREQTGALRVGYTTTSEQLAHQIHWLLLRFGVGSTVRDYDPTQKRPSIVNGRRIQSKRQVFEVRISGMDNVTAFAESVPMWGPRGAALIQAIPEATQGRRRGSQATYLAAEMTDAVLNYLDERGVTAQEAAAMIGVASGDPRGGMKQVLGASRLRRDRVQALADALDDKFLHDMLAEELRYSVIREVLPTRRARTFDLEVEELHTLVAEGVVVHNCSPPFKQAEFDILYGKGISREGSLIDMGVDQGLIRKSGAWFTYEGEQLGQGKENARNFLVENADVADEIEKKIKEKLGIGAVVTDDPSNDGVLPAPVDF
Nature of the test: Fluorescence Cell-Free Homogeneous Dose Retest to Identify Inhibitors of RecA-Intein Splicing Activity. [Related pubchem assays (depositor defined):AID2097, AID2223, AID489010, AID492950]. Format: functional.

The target of test [5] is T6, Carboxy-terminal domain RNA polymerase II polypeptide A small phosphatase 1 (Homo sapiens, UniProt Q9GZU7).
T6 sequence (Q9GZU7 whole entry): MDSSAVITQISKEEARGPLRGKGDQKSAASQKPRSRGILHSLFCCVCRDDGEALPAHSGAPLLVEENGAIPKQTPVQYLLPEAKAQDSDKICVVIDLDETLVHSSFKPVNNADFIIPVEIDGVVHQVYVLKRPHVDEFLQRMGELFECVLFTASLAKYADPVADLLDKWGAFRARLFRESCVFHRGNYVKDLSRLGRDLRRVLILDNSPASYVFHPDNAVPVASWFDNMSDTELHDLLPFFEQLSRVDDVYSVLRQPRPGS
The experiment in a line: inhibitors of CTDSP1, concentration-response testing, biochemical assay, absorbance-based, actives from ultra-high-throughput screening (AID 540297). Format: functional.

SMILES strings stand for the structures. Calls of active or inactive are those of the source. Cut-off read from the data, not from the text of the source, for most assays here: actives have a measured EC50 and inactives only a lower limit. A value given as a limit tells only on which side of the number the result lay.

Consider `CN(C)S(=O)(=O)c1ccc(N2CCCC2)c(C(=O)NCc2cccc(C(F)(F)F)c2)c1`, for which, on Protein skinhead-1, the IC50 – broadly, the concentration needed to halve the response being measured – is > 100 µM (inactive).

For the compound `c1ccc(-c2noc(CC3CCCCC3)n2)cc1`, the EC50 (with H4; in test [1]) was > 120 µM (not active) throughout.

On to `O=C1NC(=O)N(CCc2ccc(F)cc2)C(=O)/C1=C/NNC(=O)c1ccccc1`, for which the concentration for a half-maximal effect (EC50) in test [2] and in test [3] was > 300 µM (not active) throughout.

On to `O=C(NCCC1=CCCCC1)c1cnc2n(c1=O)CCS2`, for which the EC50 (in general, the concentration at which the effect is half-maximal) was 56.6 µM (active) in the test with H4 and 39.9 µM (active) in test [1].

For `COc1ccc(OC)c(C2C(C(=O)c3ccco3)=C(O)C(=O)N2CCN2CCOCC2)c1` (centres undefined), the concentration for a half-maximal effect (EC50) in test [2] and in test [3] was > 300 µM (not active) in each case.

Take `CC(C)Cn1c(C(C)C)nc([N+](=O)[O-])c1S(=O)(=O)c1ccc(F)cc1`: in test [4], the AC50 (in general, the midpoint of the concentration-response curve, whichever way the signal moves) was 13.9 µM (active). In addition, the EC50 at Protein RecA is 9.69 µM (active).

Regarding `Fc1ccc(COc2ccc(-c3nnco3)cc2)c(Cl)c1`, at Protein skinhead-1, the IC50 is 6.56 µM (active).

Turning to `O=C(Nc1ccc2c(c1)oc1ccccc12)N1CCOCC1`, the figures for the concentration giving a half-maximal response (EC50) (in the test with H4; in test [1]) were > 120 µM (not active) and 1.32 µM (active), respectively.

With `Cc1cc(C)nc(N2C(=O)CC(C(C)c3ccccc3)C2=O)n1` (centres undefined), the IC50 on Protein skinhead-1 is > 100 µM (inactive).

With `Fc1ccc(CSc2nc3cc(Br)c[nH]c-3n2)cc1`, in test [5], the IC50 was 9.63 µM (active).

As for `CC(C)c1ccc2oc(-c3ccc(NC(=O)c4nnc[nH]4)cc3)nc2c1`, the IC50 in test [5] was 6.65 µM (active).

For `Clc1ccc(OCCCc2nc(-c3ccncc3)no2)c(Cl)c1`, the 50% inhibitory concentration (IC50) at Protein skinhead-1 is 20.4 µM (active).

Take `O=C(CN1C(=O)N/C(=C\c2ccccc2OCc2ccc(C(=O)O)cc2)C1=O)Nc1ccccc1F`: the IC50 in test [5] is 7.13 µM (active).

Consider `O=C(/C=C/c1ccccc1)c1ccc2c3c(cccc13)CC2`, for which, in test [4], the AC50 is > 380 µM (inactive). In addition, on Protein RecA, the EC50 is 11.4 µM (active).

As to `O=C(Nc1cccc(-c2nc3ccccc3s2)c1)c1cc(=O)c2ccccc2o1`, in test [5], the IC50 was 5.07 µM (active).

For `Cc1nnc(SCC2=C(C(=O)O)N3C(=O)C(NC(=O)COc4ccccc4)C3SC2)s1` (centres undefined), the half-maximal inhibitory concentration (IC50) in test [5] is 8.97 µM (active).

Regarding `N#Cc1c(SCC(=O)Nc2cccc(C(F)(F)F)c2)sc2c(O)cc(O)nc12`, in test [5], the IC50 is 10.4 µM (active).

As for `COC(=O)[C@H](CCSC)NC(=O)NC1CCN(Cc2ccccc2)CC1`, the EC50 in test [2] and in test [3] was > 300 µM (not active) throughout.

Turning to `Cc1nonc1OC(C)CNc1ccc([N+](=O)[O-])cc1` (centres undefined), the IC50 on Protein skinhead-1 is > 100 µM (inactive).

Consider `CC1=NN(c2ccccc2)C(=O)/C1=C/c1cn(C)c2ccccc12`, for which, in test [4], the AC50 was 57.1 µM (active). The EC50 at Protein RecA is 39 µM (active).

For the compound `CCOC(=O)N1CC=C2C(C#N)=C(N)C(C#N)(C#N)[C@H](c3ccsc3)[C@H]2C1`, the EC50 is 58.7 µM (active) in test [2] and 78.8 µM (active) in test [3].

For the compound `NC(=O)CC(NC(=O)Cc1cccc2ccccc12)c1ccc(N2CCC(N3CCCCC3)CC2)c([N+](=O)[O-])c1` (centres undefined), on Protein skinhead-1, the IC50 is > 100 µM (inactive).

In the case of `CCOc1ccc(Cl)cc1C(c1c(C)n[nH]c1O)c1c(C)n[nH]c1O`, the AC50 in test [4] was 0.551 µM (active). Moreover, the half-maximal effective concentration (EC50) on Protein RecA is 0.221 µM (active).

`CCCn1c(=O)[nH]c(=O)c2c1nc(-c1ccccc1)n2CCN1CCOCC1`: in test [5], the IC50 is 47.8 µM (active).

For `Cc1ccc(/N=C/c2sc(O)c3ccccc23)c(C)c1`, the EC50 in test [2] was > 300 µM (inconclusive); in test [3] it was > 300 µM (not active).

Take `Cc1[nH]c2ccccc2c1/C=N/NC(=S)NC(C)C`: the EC50 in test [2] and in test [3] was > 300 µM (not active) in each case.

`CC(=O)Oc1oc(-c2ccccc2)nc1/C=N/c1ccc(N(C)C)cc1`: the EC50 in test [2] and in test [3] was > 300 µM (not active) throughout.

With `O=C(O)COc1ccc(Br)cc1/C=N/O`, the IC50 in test [5] was 8.03 µM (active).

Regarding `CC1=C(C)/C(=N\OC(=O)/C=C/c2ccccc2)C=CC1=O`, the AC50 in test [4] is > 380 µM (inactive). Besides, on Protein RecA, the EC50 is 0.532 µM (active).
